# Calls of active or inactive are those of the source.
# Key:
# [1] = target: T1, Neuropeptide Y receptor type 2 (Homo sapiens, UniProt P49146); test: NPY-Y2 antagonist potency, selectivity check, dose response, counter-screen for NPY-Y1 antagonist project, cell-based (AID 1278); assay type: functional
# T1 sequence (P49146 whole entry): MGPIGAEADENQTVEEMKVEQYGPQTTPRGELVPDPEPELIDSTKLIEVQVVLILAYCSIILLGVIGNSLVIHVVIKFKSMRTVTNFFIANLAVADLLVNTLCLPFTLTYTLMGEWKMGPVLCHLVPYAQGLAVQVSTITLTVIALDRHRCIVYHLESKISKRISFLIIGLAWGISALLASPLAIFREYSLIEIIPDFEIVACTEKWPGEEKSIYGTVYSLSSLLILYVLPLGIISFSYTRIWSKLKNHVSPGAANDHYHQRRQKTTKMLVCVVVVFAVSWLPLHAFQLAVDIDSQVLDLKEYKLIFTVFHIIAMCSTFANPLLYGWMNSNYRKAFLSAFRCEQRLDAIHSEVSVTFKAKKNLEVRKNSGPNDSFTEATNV
# [2] = target: T2, Streptokinase A (Streptococcus pyogenes serotype M1, UniProt P10520); test: S. pyogenes streptokinase expression inhibitors, potency, dose response, plasminogen activation absorbance, OD405 (AID 1914); assay type: functional, Streptococcus pyogenes M1 GAS;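 also: secreted streptokinase activity via plasminogen activation per viability signal from cell pellet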
# T2 sequence (P10520 whole entry): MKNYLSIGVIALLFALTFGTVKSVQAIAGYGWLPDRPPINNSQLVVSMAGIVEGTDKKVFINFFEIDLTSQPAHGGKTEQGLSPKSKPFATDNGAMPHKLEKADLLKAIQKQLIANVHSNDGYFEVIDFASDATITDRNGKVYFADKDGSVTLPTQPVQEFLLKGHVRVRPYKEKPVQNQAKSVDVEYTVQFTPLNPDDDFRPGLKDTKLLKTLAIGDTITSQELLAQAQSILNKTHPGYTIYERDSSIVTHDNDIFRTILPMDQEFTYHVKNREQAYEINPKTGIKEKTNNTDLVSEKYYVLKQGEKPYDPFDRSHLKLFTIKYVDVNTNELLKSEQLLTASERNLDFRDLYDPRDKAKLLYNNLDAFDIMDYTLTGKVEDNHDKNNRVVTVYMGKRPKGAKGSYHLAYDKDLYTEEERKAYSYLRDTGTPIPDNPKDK
# [3] = cytotoxicity in KRAS-transformed pancreatic duct cells, primary screen, cell-based, fluorescence, HTS (AID 431); assay type: functional; settings: Homo sapiens;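 also: cell line used: HPDE-C7K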
# [4] = cytotoxicity in HPDE-C7 cells, cell-based, fluorescence, HTS (AID 430); assay type: functional; settings: Homo sapiens
# [5] = test system: Streptococcus sp. 'group A'; test: growth inhibition of control SK(-) GAS strain, dose response, counter-screen for streptokinase expression inhibitor project, luminescence, kanamycin, BacTiterGlo, confirmation (AID 1900); assay type: functional, organism-based
# [6] = target: T3, Coagulation factor XII (Homo sapiens, UniProt P00748); assay type: functional;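 also: activated factor XIIa alpha cleaving a fluorogenic AMC peptide substrate; inhibitor potency from loss of enzyme activity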
# T3 sequence (P00748 whole entry): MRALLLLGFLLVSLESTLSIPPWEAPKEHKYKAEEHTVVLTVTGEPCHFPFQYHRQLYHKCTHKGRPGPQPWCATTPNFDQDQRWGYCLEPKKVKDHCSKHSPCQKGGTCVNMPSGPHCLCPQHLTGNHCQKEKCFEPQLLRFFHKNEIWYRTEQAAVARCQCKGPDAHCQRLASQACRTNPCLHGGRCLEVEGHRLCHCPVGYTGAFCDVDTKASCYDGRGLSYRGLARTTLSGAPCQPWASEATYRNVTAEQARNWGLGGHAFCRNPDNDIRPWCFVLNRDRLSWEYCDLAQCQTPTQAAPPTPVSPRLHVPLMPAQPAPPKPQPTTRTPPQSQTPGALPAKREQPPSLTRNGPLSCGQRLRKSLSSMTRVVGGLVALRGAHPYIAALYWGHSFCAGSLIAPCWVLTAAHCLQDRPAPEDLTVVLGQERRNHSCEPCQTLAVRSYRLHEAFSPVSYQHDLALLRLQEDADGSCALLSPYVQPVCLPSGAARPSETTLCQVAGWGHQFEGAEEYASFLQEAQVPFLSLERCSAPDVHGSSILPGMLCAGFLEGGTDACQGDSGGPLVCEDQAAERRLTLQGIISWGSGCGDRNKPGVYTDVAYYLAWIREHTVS
# [7] = test system: Streptococcus; test: Group A Streptococcus viability loss, dose response, counter-screen for streptokinase expression inhibitor project, luminescence, BacTiterGlo (AID 1915); assay type: functional, organism-based;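 also: potency for reduction of bacterial viability or growth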
# [8] = target: T4, Neuropeptide Y receptor type 1 (Homo sapiens, UniProt P25929); test: NPY-Y1 receptor antagonist potency, dose response, cell-based (AID 1277); assay type: functional
# T4 sequence (P25929 whole entry): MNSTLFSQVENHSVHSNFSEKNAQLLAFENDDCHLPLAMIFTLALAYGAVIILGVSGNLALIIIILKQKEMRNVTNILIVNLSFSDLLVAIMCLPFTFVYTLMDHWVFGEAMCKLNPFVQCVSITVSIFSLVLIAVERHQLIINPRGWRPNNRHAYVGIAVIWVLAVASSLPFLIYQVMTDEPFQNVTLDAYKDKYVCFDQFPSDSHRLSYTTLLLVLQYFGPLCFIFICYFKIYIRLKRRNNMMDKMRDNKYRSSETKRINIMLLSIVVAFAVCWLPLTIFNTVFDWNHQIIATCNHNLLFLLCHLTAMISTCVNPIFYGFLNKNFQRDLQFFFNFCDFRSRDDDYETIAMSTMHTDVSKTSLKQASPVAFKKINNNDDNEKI
# [9] = target: T5, Estrogen receptor beta (Homo sapiens, UniProt Q92731);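 also: recombinant ER-beta bound to coactivator SRC1 peptide in presence of estradiol agonist; inhibitors block coactivator peptide binding and lower the FRET signal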
# [10] = target: T5, Estrogen receptor beta; test: ERβ–SRC-3 coactivator interaction inhibitors, confirmation, orthogonal assay, biochemical, ELISA, streptavidin-HRP readout (AID 1060)
# [11] = target: T6, Protein Tat (Human immunodeficiency virus type 1 group M subtype B (isolate HXB2)(HIV-1), UniProt P04608); assay type: functional;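 also: tat binding to TAR RNA read out by fluorescence polarization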
# T6 sequence (P04608 whole entry): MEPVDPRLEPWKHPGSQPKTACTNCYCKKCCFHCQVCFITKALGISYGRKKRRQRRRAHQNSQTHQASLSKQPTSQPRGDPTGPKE
# [12] = target: T7, Protein RecA (Mycobacterium tuberculosis, UniProt P9WHJ3); test: Fluorescence Cell-Free Homogeneous Dose Retest to Identify Inhibitors of RecA-Intein Splicing Activity. [Related pubchem assays (depositor defined):AID2097, AID2223, AID489010, AID492950]; assay type: functional
# T7 sequence (P9WHJ3 whole entry): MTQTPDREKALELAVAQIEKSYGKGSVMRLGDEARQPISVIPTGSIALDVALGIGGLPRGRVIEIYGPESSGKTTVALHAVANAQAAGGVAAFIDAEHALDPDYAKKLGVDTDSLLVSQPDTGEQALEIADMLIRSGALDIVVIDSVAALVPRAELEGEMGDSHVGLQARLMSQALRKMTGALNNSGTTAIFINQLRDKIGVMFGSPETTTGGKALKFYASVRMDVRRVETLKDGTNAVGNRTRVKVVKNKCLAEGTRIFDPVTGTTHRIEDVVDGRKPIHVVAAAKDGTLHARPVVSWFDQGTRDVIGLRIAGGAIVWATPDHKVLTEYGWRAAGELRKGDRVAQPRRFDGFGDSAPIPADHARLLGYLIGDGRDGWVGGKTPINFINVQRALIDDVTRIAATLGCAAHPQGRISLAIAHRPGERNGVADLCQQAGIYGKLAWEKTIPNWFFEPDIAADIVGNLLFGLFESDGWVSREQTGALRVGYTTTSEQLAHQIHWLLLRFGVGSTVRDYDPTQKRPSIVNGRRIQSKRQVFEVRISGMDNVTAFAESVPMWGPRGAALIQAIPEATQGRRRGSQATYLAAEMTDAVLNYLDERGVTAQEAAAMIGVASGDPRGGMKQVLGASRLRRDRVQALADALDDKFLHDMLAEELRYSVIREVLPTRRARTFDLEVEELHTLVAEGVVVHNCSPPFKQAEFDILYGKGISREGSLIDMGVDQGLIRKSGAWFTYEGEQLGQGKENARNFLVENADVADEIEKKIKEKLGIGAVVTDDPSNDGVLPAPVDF
# [13] = target: T8, Replicative DNA helicase DnaB (Mycobacterium tuberculosis, UniProt P9WMR3); test: DnaB intein splicing inhibitors, dose response, biochemical, cell-free fluorescence (AID 449749); assay type: functional
# T8 sequence (P9WMR3 whole entry): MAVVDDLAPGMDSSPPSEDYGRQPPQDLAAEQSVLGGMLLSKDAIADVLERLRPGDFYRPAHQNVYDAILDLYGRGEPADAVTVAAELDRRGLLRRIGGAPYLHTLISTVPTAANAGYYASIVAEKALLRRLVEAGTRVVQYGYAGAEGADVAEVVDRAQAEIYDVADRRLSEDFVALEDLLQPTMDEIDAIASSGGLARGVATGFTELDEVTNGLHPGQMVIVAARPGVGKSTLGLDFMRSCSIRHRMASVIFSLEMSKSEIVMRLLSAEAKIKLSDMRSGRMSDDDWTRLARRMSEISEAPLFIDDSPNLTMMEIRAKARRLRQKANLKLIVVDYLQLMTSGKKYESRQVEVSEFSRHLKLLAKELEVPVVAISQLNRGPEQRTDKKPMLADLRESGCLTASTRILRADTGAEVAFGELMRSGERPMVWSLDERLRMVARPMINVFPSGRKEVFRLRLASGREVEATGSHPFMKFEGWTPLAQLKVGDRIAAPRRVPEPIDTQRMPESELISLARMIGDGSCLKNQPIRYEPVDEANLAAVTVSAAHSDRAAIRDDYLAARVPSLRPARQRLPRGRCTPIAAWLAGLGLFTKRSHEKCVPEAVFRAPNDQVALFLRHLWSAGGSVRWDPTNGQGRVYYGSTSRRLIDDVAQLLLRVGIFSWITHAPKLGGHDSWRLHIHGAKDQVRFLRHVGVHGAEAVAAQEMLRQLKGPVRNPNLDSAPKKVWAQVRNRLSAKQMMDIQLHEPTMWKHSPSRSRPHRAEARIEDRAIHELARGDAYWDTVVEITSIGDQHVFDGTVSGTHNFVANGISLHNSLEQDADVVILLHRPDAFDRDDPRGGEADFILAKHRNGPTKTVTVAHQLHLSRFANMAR
# [14] = target: T9, Apoptotic protease-activating factor 1 (Homo sapiens, UniProt O14727); assay type: functional
# T9 sequence (O14727 whole entry): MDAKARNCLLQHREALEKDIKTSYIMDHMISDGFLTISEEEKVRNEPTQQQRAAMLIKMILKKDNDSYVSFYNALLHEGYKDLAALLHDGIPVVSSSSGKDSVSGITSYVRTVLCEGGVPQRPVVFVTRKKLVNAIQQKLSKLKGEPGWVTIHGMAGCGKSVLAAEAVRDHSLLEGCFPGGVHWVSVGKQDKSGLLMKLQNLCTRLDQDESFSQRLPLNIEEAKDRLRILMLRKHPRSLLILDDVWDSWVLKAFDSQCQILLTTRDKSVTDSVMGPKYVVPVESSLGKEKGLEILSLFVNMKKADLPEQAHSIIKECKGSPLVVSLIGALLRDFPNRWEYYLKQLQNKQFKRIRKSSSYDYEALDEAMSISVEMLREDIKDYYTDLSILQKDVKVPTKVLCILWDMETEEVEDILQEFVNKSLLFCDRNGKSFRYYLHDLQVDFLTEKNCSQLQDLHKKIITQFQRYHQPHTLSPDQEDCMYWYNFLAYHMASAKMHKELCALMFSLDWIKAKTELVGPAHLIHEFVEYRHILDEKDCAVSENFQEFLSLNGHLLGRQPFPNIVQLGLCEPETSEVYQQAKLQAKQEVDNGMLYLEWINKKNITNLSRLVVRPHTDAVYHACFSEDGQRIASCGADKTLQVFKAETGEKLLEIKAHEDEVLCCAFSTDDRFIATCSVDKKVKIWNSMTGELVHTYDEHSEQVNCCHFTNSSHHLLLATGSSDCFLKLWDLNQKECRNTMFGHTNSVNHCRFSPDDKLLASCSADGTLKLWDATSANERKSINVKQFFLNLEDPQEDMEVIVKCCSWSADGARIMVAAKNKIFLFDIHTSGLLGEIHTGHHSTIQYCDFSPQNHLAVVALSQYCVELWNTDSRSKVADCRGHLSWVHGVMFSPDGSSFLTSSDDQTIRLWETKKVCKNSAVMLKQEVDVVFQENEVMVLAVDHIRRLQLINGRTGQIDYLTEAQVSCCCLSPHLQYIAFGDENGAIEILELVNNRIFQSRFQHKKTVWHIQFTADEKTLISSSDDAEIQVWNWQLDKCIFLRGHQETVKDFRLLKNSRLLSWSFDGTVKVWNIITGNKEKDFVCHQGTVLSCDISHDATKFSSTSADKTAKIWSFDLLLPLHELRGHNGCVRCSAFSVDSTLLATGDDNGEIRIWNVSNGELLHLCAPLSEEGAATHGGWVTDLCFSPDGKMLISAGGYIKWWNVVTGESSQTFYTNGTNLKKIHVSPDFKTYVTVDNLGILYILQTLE
# [15] = control 3'UTR Renilla luciferase suppression, dose response, counter-screen for Shn3 inhibitor project, cell-based, Clone20-Shn3RL, cherry-picked (AID 624133); assay type: functional
# [16] = HEp-2 cell cytotoxicity, dose response, cytotoxicity control for RSV inhibitor project, HTS (AID 2410); assay type: functional; settings: human respiratory syncytial virus
# [17] = Shn3 3'UTR reporter inhibitors, dose response, cell-based, Clone20 osteoblasts, firefly luciferase, cherry-picked (AID 624132); assay type: functional;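 also: firefly luciferase luminescence from reporter carrying the Shn3 3'UTR in osteoblasts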
# [18] = HepG2 cell cytotoxicity, dose response, cytotoxicity control for Shn3 inhibitor project, CellTiter-Glo, cherry-picked (AID 624134); assay type: functional, cell-based
# T5 sequence (Q92731 whole entry): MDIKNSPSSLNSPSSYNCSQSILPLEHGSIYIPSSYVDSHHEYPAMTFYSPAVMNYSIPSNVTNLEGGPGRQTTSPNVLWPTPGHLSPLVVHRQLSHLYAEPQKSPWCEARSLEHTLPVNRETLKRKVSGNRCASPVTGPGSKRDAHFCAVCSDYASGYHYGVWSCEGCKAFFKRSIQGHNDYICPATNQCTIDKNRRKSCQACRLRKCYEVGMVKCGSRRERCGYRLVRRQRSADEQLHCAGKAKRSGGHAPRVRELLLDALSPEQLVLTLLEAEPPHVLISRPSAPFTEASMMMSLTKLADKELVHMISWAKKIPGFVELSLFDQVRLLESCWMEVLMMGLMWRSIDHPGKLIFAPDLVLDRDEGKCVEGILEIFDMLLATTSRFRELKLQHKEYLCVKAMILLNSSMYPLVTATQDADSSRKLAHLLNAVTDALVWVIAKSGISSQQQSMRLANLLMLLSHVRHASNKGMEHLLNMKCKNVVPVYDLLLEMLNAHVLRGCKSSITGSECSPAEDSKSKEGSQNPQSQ
smiles,measurement,setting,value
CC(NC(=O)Nc1nnc(C(F)(F)F)s1)(C(F)(F)F)C(F)(F)F,IC50,[1],> 35 µM (not active)
same,EC50,[2],> 150 µM (not active)
same,EC50,[3],14.4 µM (active)
same,EC50,[4],8.76 µM (active)
same,EC50,[5],3.54 µM (active)
same,IC50,[6],> 50 µM (inactive)
same,EC50,[7],7.84 µM (active)
same,IC50,[8],> 35 µM (not active)
N#CC(C(=O)Nc1ccccc1)=C1CCCCC1,IC50,[9],> 50 µM (not active)
O=C(CSc1nnc(Nc2ccccc2F)s1)NCc1ccco1,IC50,[10],0.142 µM (not active)
same,IC50,[9],13.7 µM (active)
Nc1ccc(Oc2ncccn2)cc1,IC50,[11],> 100 µM (active)
same,EC50,[12],13.8 µM (active)
same,AC50,[13],29.6 µM (active)
same,IC50,[14],25.7 µM (active)
NC(=O)Cc1c[nH]c2cccc(O)c12,IC50,[10],> 50 µM (not active)
O=S(=O)(Nc1ccc(N2CCOCC2)cc1)c1cccs1,IC50,[10],> 50 µM (not active)
CC(C)(C)n1nnnc1C(c1ccc(C(F)(F)F)cc1)N(Cc1ccccc1)Cc1ccco1 (stereo not drawn),IC50,[1],> 35 µM (not active)
same,AC50,[15],6.74 µM (active)
same,CC50,[16],9.91 µM (active)
same,AC50,[17],4.74 µM (active)
same,IC50,[8],> 35 µM (not active)
same,AC50,[18],44.1 µM (active)

# Reference: ChEMBL document CHEMBL1201862, “PubChem BioAssay data set” (2004)
